Legend:
[1] = system: unilateral 6-OHDA-lesioned hemi-Parkinsonian rats; assay: Contralateral rotational behavior in unilateral 6-hydroxydopamine-lesioned hemi-parkinsonian rats; type: in vivo, rat (male Sprague-Dawley); details: 10 mg/kg oral, fasted rats, observed up to 24 hours, mean
Method: 6-OHDA was dissolved at 2 mg/mL in a physiolosical saline solution containing 0.2% L-ascorbic acid. Desipramine was dissolved at 10 mg/mL in a physiolosical saline solution in a hot-water bath. Apomorphine was dissolved at 0.1 mg/mL in a physiolosical saline solution. […] Test compounds were dissolved in a solution containing 2% DMA, 100 or 200 mol % hydrochloric acid, and 98% of a 0.5% methyl cellulose solution. […] (Eur J Pharmacol, 2000, vol. 408, P. 249-255) with a minor modification. Male Sprague-Dawley rats (6-weeks-old, Charles River Laboratories Japan Inc.) were anaesthetized with intraperitoneal somnopentyl (45 mg/kg) injection and placed in a stereotaxic frame (Narishige). In order to prevent 6-OHDA-induced damage of noradrenergic neurons, desipramine (25 mg/kg) was intraperitoneally injected 30 minutes before the 6-OHDA injection. After the bregma identification via a middle calvarial incision, the skull was drilled using a dental drill at the site of 6-OHDA injection. The lesion was made by injecting 6-OHDA (8 μg in 4 μL at a speed of 1 μL/minute) unilaterally into the left medial forebrain bundle by using a injection cannula (30 gauge needle) connected to a microsyringe (Hamilton) (the lesion coordinates; A/P −2.5 mm, L/M −1.8 mm, and V/D −8.0 mm, from the bregma point and surface of the skull). The cannula was carefully removed from the animal after keeping placed on the lesion site for 5 minutes. The skull was filled its hole with dental cement, disinfected, and the scalp incision was surgically sutured. Animals recovered from anesthesia were housed as usual until the day of the experiment. 3) Determining of Contralateral Rotational Behavior Three weeks after the lesion, rats were tested on the basis of their contralateral rotational behavior (single rotation was defined as a 360° turn) in response to 0.1 mg/kg apomorphine given subcutaneously. For behavioral observation, rats were placed in plastic cylinders of a diameter of 30 cm, and its contralateral rotational behaviors were videotaped and quantified by rat-rotation auto counting system R-RACS (Kissei Wellcom). On the experimental day, animals were fasted overnight, and test compounds were orally administrated at doses of 10 mg/kg. […] Total number of rotations and the duration of the response in experimental period were presented as mean value.

[2] = molecular target: T1, human serotonin 5-HT2B receptor (Homo sapiens, UniProt P41595); assay: Stimulating activities on human serotonin 5-HT2B receptor, intracellular calcium in forced expression HEK293 cells; type: cell-based; details: intracellular calcium (Fluo-4), HEK293 cells transiently expressing human 5-HT2B receptor; mean, n=2; read-out: EC50
T1 construct: expressed in transfected cells; host or cells: HEK293, transient transfection (Lipofectamine 2000)
Method: Identification Test of Stimulating Activities on Human Serotonin 5-HT2B Receptor
The PCR was performed using forward primer depicted as sequence ID No. 4, reverse primer depicted as sequence ID No. 5 and KOD-Plus-Ver.2 (TOYOBO) as template of human brain hippocampus cDNA (Clontech). The PCR product was inserted into a plasmid (pcDNA3.1/V5-His-Topo (registered mark)). The PCR product-inserted plasmid was transformed in E. coli (One Shot TOP10 Chemically Competent). That E. coli was incubated in LB agar medium contained 50 μg/mL ampicillin for a day. A selected colony was incubated in LB medium contained 50 μg/mL ampicillin and PCR product-inserted plasmid was purified with QIAprep Spin Miniprep Kit (QIAGEN).
Mostly confluent HEK293 cells were washed with PBS, followed by exfoliation with 0.05% trypsin-EDTA and the cells were suspended in D-MEM liquid medium (phenol red-free, low glucose, pyruvic acid were contained) containing fetal bovine serum (final concentration: 10%) and GlutaMax (registered mark)I (final concentration: 2 mM). The suspension was scattered at 5×10^4 cells/100 L/well on poly-D-lysine-coated 96-well microplate (BD BioCoat (registered mark)). The scattered cells were cultured in 5% CO2 incubator at 37° C. Human serotonin 5-HT2B receptor expression plasmid was transfected in that cells according to the procedure seeing below.
Human serotonin 5-HT2B receptor expression plasmid and Lipofectamine (registered mark) 2000 (Invitrogen) were diluted to 0.008 g/L and 0.016 g/L each other with OPTI-MEM (registered mark)I Reduced-Serum Medium and incubated at room temperature. After incubation, the human serotonin 5-HT2B receptor exoression plasmid-diluted liquid and Lipofectamine (registered mark) 2000-diluted liquid were mixed at an equal volume and incubated at room temperature to form a complex. The complex was dispensed at 50 μL/well on the cells prepared above. The cells were incubated in 5% CO2 incubator at 37° C. for 2 days. After incubation, the cells were used as human serotonin 5-HT2B receptor forced expression cells for measurement of intracellular calcium concentration.
3) Determination of Stimulating Activities of Human Serotonin 5-HT2B Receptor
The stimulating activities of human serotonin 5-HT2B receptor was determined by measuring of intracellular calcium concentration. The 30 mM dimethyl sulfoxide (DMSO) solution contained test compounds or serotonin hydrochloride (Sigma) as positive control, was diluted with assay buffer ((HBSS), 20 mM HEPES, 1.3 mM calcium chloride, 0.5 mM magnesium chloride and 0.4 mM magnesium sulfate were contained, pH7.4) to appropriate concentration.
The forced expression cells were washed with assay buffer, and 100 μL/well of fluorescent calcium indicator (Fluo-4 NW Calcium Assay Kit) was added and incubated in 5% CO2 incubator at 37° C. After incubation, 50 μL/well of each test compound was added, and the concentration of intracellular calcium was measured as fluorescent signal with FlexStation (registered mark) II (Molecular Devices). The data was analyzed by nonlinear regression and sigmoidal dose-response curve fitting using GraphPad PRISM 4.0, and values of EC50 (concentration of the compound producing half the maximal effect of the compound) were calculated. The data was presented as mean value (n=2).

[3] = molecular target: T2, human dopamine D2 receptor (Homo sapiens, UniProt P14416); assay: Stimulating activities on human dopamine D2 receptor, [35S]GTPγS binding to hD2R#7 cell membrane homogenates; type: biochemical; details: [35S]GTPγS binding, membrane homogenates of HEK293 cells stably expressing human D2 receptor; mean, n=2; read-out: EC50
T2 construct: accorded to it of human dopamine D2 receptor (NM1-000795) registered on NCBI completely; expressed in transfected cells; membrane homogenates
Method: Identification Test of Stimulating Activities on Human Dopamine D2 Receptor
4) Preparation of Membrane Homogenates from hD2R#7 Cells
(2) Preparation of Membrane Homogenates from hD2R#7 Cells
The cells, which were grown to confluence in 150 mm dishes (IWAKI), were harvested with isotonic buffer (50 mM Tris (Sigma), 2 mM ethylenediamine-tetraacetic acid (Invitrogen), and 125 mM sodium chloride (Wako Pure Chemicals), pH 7.4) and centrifuged at 1880×g and 4° C. for 10 minutes, and the cell pellets were then suspended in isotonic buffer. After being subjected to one cycle of freezing and thawing, the cells were centrifuged at 1880×g and 4° C. for 10 minutes, and the cell pellets were suspended in isotonic buffer. The cells were centrifuged at 1880×g and 4° C. for 10 minutes, and the cell pellets were suspended in isotonic buffer and homogenate buffer (10 mM sodium bicarbonate (Nacalai) and 5 mM ethylenediamine-tetraacetic acid, pH 7.5). The volume ratio of isotonic-to-homogenate buffer was 2. The cells were sonicated and centrifuged at 1880×g and 4° C. for 10 minutes, and the supernatants were ultracentrifuged at 80000×g and 4° C. for 30 minutes. The final cell pellets were suspended in homogenate buffer containing protease inhibitor cocktail (Nacalai) and stored at −80° C. until use. The protein concentration was determined using BCA Protein Assay Kit (Pierce) in accordance with the manufacturer's instructions.
5) Determination of Stimulating Activities of Human Dopamine D2 Receptor
The stimulating activities of human dopamine D2 receptor was determined by measuring the binding potential of [^35S]-guanosine 5′-[gamma-thio]triphosphate ([^35S]GTPγS, PerkinElmer) according to the method described by Newman-Tancredi A. et al. (Naunyn-Schmiedeberg's Arch Pharmacol, 1999, vol. 359, pp. 447-453) with a minor modification. Test compounds and dopamine hydrochloride (Fluka) as positive control were dissolved in dimethyl sulfoxide (CARLBIOCHEM), resulting in 30 mM. The both compounds were diluted with assay buffer (50 mM Tris, 100 mM sodium chloride, 5 mM magnesium chloride (Nacalai), 1 mM ethylenediamine-tetraacetic acid, 1 mM dithiothreitol (Wako Pure Chemicals), 10 μM guanosine diphosphate (Wako Pure Chemicals) and 0.5% bovine serum albumin (Sigma), pH 7.4) to a final concentration of 100 pM (only test compounds), 1 nM, 10 nM, 100 nM, 1 μM, 10 μM and 100 μM (only dopamine hydrochloride). The above membrane homogenates and [^35S]GTPγS were diluted with assay buffer to a final concentration of 0.06 mg/mL and 0.6 nM, respectively. The serial diluted compounds (50 μL), the diluted membrane homogenates (50 μL) and the diluted [^35S]GTPγS (50 μL) were mixed on multi-screen 96-well plate (Millipore) and shaken lightly at room temperature for 60 minutes. The reaction was terminated by vacuum filtration with three times washes of ice-cold wash buffer (50 mM Tris, 100 mM sodium chloride, 5 mM magnesium chloride, and 1 mM ethylenediamine-tetraacetic acid, pH 7.4). After drying the bottoms of the plate at 60° C., MicroScinti-40 (PerkinElmer) (30 μL) was added in the plate. The tops of the plate were sealed by TopSeal-A (PerkinElmer), and the radioactivity was determined in a TopCount NXT (registered mark) (PerkinElmer) after shaking lightly for 5-10 minutes. The data was analyzed by nonlinear regression and sigmoidal dose-response curve fitting using GraphPad PRISM 4.0 (GraphPad Software), and values of EC50 (concentration of the compound producing half the maximal effect of the compound) were calculated. The data was presented as mean value (n=2).

T1 sequence (P41595 whole entry): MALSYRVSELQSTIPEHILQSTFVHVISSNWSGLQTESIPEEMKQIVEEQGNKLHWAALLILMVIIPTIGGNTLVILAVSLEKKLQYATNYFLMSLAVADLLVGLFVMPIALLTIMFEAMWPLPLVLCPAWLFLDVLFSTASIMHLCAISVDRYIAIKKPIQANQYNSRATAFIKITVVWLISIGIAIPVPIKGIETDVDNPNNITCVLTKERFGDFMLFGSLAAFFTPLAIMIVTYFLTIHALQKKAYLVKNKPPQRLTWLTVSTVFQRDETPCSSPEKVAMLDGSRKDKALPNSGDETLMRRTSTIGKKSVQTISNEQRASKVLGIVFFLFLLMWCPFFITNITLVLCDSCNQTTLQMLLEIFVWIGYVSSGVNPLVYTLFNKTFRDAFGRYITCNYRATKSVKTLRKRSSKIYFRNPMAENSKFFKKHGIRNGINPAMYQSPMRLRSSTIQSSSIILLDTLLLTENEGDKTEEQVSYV
T2 sequence (P14416 whole entry): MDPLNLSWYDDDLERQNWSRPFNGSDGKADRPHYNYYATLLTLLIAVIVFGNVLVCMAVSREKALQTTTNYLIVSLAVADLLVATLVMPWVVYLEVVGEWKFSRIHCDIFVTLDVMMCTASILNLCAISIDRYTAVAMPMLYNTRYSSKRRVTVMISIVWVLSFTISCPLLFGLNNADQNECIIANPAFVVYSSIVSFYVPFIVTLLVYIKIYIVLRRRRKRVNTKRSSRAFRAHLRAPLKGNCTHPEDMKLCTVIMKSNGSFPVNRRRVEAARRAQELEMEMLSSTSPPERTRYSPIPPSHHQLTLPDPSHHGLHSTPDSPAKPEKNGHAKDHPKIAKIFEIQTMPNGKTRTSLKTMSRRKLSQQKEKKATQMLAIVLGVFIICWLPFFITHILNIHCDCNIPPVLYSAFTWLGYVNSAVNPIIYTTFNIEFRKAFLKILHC

Compound	Total number or rotations ([1]; contralateral rotations)	Duration ([1]; duration of contralateral rotation response) [min]	EC50 [2] [µM]	EC50 [3] [µM]
CCN(C(=O)NCC(CC)(CC)N(C)C)C(=O)[C@@H]1C[C@@H]2Cc3c(sc(N)c3C#N)C[C@H]2N(C)C1 [1-107, 1-{[(4aR,6R,8aR)-2-amino-3-cyano-8-methyl-4H,4aH,5H,6H,7H,8H,8aH,9H-thieno[3,2-g]quinolin-6-yl]carbonyl}-3-[2-(dimethylamino)-2-ethylbutyl]-1-ethylurea]	4033.3	1068.3	> 10	–
CCN(C(=O)NC)C(=O)[C@@H]1C[C@@H]2Cc3c(sc(N)c3C#N)C[C@H]2N(C)C1 [1-23]	–	–	> 10	0.008
CCCN(C(=O)NC1CN(C)C1)C(=O)[C@@H]1C[C@@H]2Cc3c(sc(N)c3C#N)C[C@H]2N(C)C1 [1-99]	–	–	> 10	0.008
CN(C)CCNC(=O)N(CCc1ccccc1)C(=O)[C@@H]1C[C@@H]2Cc3c(sc(N)c3C#N)C[C@H]2N(C)C1 (relative stereo) [1-30, 1-{[(4aR*,6R*,8aR*)-2-amino-3-cyano-8-methyl-4H,4aH,5H,6H,7H,8H,8aH,9H-thieno[3,2-g]quinolin-6-yl]carbonyl}-3-[2-(dimethylamino)ethyl]-1-(2-phenylethyl)urea]	–	–	> 10	0.004
CCCN(C(=O)NCC(C)(C)N(C)C)C(=O)[C@@H]1C[C@@H]2Cc3c(sc(N)c3C#N)C[C@H]2N(C)C1 (relative stereo) [1-82, 1-{[(4aR*,6R*,8aR*)-2-amino-3-cyano-8-methyl-4H,4aH,5H,6H,7H,8H,8aH,9H-thieno[3,2-g]quinolin-6-yl]carbonyl}-3-[2-(dimethylamino)-2-methylpropyl]-1-propylurea]	–	–	> 10	0.013

From US9138434B2, “Octahydrothienoquinoline derivative, pharmaceutical composition comprising derivative, and use of these” (KISSEI PHARMACEUTICAL CO., LTD., priority 2011, dated 2015)
